# Laboratory results: US20100298141A1, “SUBSTITUTED PYRIDINE N-OXIDE HERBICIDES” (E. I. DU PONT DE NEMOURS AND COMPANY, priority 2007, published 2010)
# Tests used:
# [1] = tested on: Goosegrass; test: Test C pre-/postemergence test; type: in vivo, Eleusin indica; conditions: for Plant response rating, Goosegrass: scale 0 to 100, 0 no effect, 100 complete control
# Procedure, shortened: (§1)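 Test chemicals were formulated with surfactant in a non-phytotoxic solvent and sprayed both on freshly planted seeds (preemergence) and on 1- to 4-leaf plants of 2–18 cm (postemergence). Flooded-paddy pots received compound directly into 3 cm of standing water, maintained for the test.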
# [2] = tested on: barnyardgrass; test: Test A pre-/postemergence greenhouse test; type: in vivo, Echinochloa crus-galli; conditions: for Barnyardgrass plant response rating: 0 to 100 scale
# Procedure, shortened: (§2)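 Untreated controls served as the reference for visual injury ratings taken about ten days after spraying. The non-phytotoxic solvent/surfactant formulation was applied preemergence to seeded loam and sand and postemergence to plants two to ten cm high.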
# [3] = tested on: pigweed; test: Test C pre-/postemergence test; type: in vivo, Amaranthus retroflexus; conditions: for Plant response rating, Pigweed: scale 0 to 100, 0 no effect, 100 complete control
# Procedure, shortened: as §1
# [4] = tested on: corn; test: Test C pre-/postemergence test; type: in vivo, Zea mays; conditions: for Plant response rating, Corn: scale 0 to 100, 0 no effect, 100 complete control
# Procedure, shortened: as §1
# [5] = tested on: morningglory; test: Test C pre-/postemergence test; type: in vivo, Ipomoea coccinea; conditions: for Plant response rating, Morningglory: scale 0 to 100, 0 no effect, 100 complete control
# Procedure, shortened: as §1
# [6] = tested on: crabgrass; test: Test A pre-/postemergence greenhouse test; type: in vivo, Digitaria sanguinalis; conditions: for Crabgrass, Large plant response rating: 0 to 100 scale
# Procedure, shortened: as §2
# [7] = tested on: corn; test: Test A pre-/postemergence greenhouse test; type: in vivo, Zea mays; conditions: for Corn plant response rating: 0 to 100 scale
# Procedure, shortened: as §2
# [8] = tested on: common (oilseed) sunflower; test: Test C pre-/postemergence test; type: in vivo, Helianthus annuus; conditions: for Sunflower plant response rating: preemergence, scale 0 (no effect) to 100 (complete control)
# Procedure, shortened: as §1
# [9] = tested on: giant foxtail; test: Test C pre-/postemergence test; type: in vivo, Setaria faberii; conditions: for Plant response rating, Foxtail, Giant: scale 0 to 100, 0 no effect, 100 complete control
# Procedure, shortened: as §1
# [10] = tested on: velvetleaf; test: Test C pre-/postemergence test; type: in vivo, Abutilon theophrasti; conditions: Postemergence; for Plant response rating, Velvetleaf: scale 0 to 100, 0 no effect, 100 complete control
# Procedure, shortened: as §1
# [11] = tested on: eastern black nightshade; test: Test C pre-/postemergence test; type: in vivo, Solanum ptycanthum
# Procedure, shortened: as §1
# [12] = tested on: johnsongrass; test: Test C pre-/postemergence test; type: in vivo, Sorghum halepense; conditions: for Johnsongrass plant response rating: preemergence, scale 0 (no effect) to 100 (complete control); for Plant response rating, Johnsongrass: scale 0 to 100, 0 no effect, 100 complete control
# Procedure, shortened: as §1
# [13] = tested on: wheat; test: Test A pre-/postemergence greenhouse test; type: in vivo, Triticum aestivum; conditions: for Wheat plant response rating: 0 to 100 scale
# Procedure, shortened: as §2
# [14] = tested on: crabgrass; test: Test C pre-/postemergence test; type: in vivo, Digitaria sanguinalis; conditions: for Plant response rating, Crabgrass, Large: scale 0 to 100, 0 no effect, 100 complete control
# Procedure, shortened: as §1
# [15] = tested on: Italian ryegrass; test: Test C pre-/postemergence test; type: in vivo, Lolium multiflorum; conditions: for Plant response rating, Ryegrass, Italian: scale 0 to 100, 0 no effect, 100 complete control
# Procedure, shortened: as §1
# [16] = tested on: Surinam grass; test: Test C pre-/postemergence test; type: in vivo, Brachiaria decumbens; conditions: for Surinam Grass plant response rating: preemergence, scale 0 (no effect) to 100 (complete control); for Plant response rating, Surinam Grass: scale 0 to 100, 0 no effect, 100 complete control
# Procedure, shortened: as §1
# [17] = 31 g ai/ha, Preemergence, scale 0 to 100
# [18] = 62 g ai/ha, preemergence, scale 0 (no effect) to 100 (complete control)
# [19] = preemergence, 125 g ai/ha, scale 0 (no effect) to 100 (complete control)
# [20] = Postemergence, 125 g ai/ha, 0 is no effect, 100 is complete control
# [21] = Postemergence, 500 g ai/ha, 0 is no effect, 100 is complete control
# [22] = Preemergence, 125 g ai/ha, 0 no effect, 100 complete control
# [23] = Preemergence, 500 g ai/ha, 0 to 100 scale where 0 is no effect and 100 is complete control
smiles,measurement,setting,value
Cn1nc(C(F)(F)F)c(C[S+]([O-])c2cccc[n+]2[O-])c1OC(F)F (stereo not shown) [Compound 3],Goosegrass plant response rating,[1]; [17],85
same,Goosegrass plant response rating,[1]; [18],100
same,"Plant response rating (0 to 100), Goosegrass","[1]; Postemergence, 31 g ai/ha",20
same,"Plant response rating, Goosegrass","[1]; Postemergence, 62 g ai/ha",50
same,"Plant response rating, Goosegrass","[1]; Postemergence, 125 g ai/ha",65
same,"Plant response rating, Goosegrass","[1]; Postemergence, 250 g ai/ha",80
same,"Plant response rating (0 to 100), Goosegrass","[1]; Preemergence, 250 g ai/ha",100
same,Goosegrass plant response rating,[1]; [19],100
same,Barnyardgrass plant response rating,[2]; [20],80
same,Barnyardgrass plant response rating,[2]; [21],90
same,Barnyardgrass plant response rating,[2]; [22],80
same,"Plant response rating, Barnyardgrass",[2]; [23],100
same,Pigweed plant response rating,[3]; [17],75
same,Pigweed plant response rating,[3]; [18],100
same,"Plant response rating (0 to 100), Pigweed","[3]; Postemergence, 31 g ai/ha",0
same,"Plant response rating (0 to 100), Pigweed","[3]; Postemergence, 62 g ai/ha",0
same,"Plant response rating, Pigweed","[3]; Postemergence, 125 g ai/ha",10
same,"Plant response rating, Pigweed","[3]; Postemergence, 250 g ai/ha",60
same,"Plant response rating (0 to 100), Pigweed","[3]; Preemergence, 250 g ai/ha",100
same,Pigweed plant response rating,[3]; [19],100
same,Corn plant response rating,[4]; [17],50
same,Corn plant response rating,[4]; [18],75
same,"Plant response rating (0 to 100), Corn","[4]; Postemergence, 31 g ai/ha",0
same,"Plant response rating, Corn","[4]; Postemergence, 62 g ai/ha",5
same,"Plant response rating, Corn","[4]; Postemergence, 125 g ai/ha",5
same,"Plant response rating, Corn","[4]; Postemergence, 250 g ai/ha",5
same,"Plant response rating (0 to 100), Corn","[4]; Preemergence, 250 g ai/ha",98
same,Corn plant response rating,[4]; [19],90
same,Morningglory plant response rating,[5]; [17],50
same,Morningglory plant response rating,[5]; [18],90
same,"Plant response rating (0 to 100), Morningglory","[5]; Postemergence, 31 g ai/ha",5
same,"Plant response rating, Morningglory","[5]; Postemergence, 62 g ai/ha",50
same,"Plant response rating, Morningglory","[5]; Postemergence, 125 g ai/ha",50
same,"Plant response rating, Morningglory","[5]; Postemergence, 250 g ai/ha",50
same,"Plant response rating (0 to 100), Morningglory","[5]; Preemergence, 250 g ai/ha",100
same,Morningglory plant response rating,[5]; [19],100
same,"Crabgrass, Large plant response rating",[6]; [20],80
same,"Crabgrass, Large plant response rating",[6]; [21],90
same,"Crabgrass, Large plant response rating",[6]; [22],90
same,"Plant response rating, Crabgrass, Large",[6]; [23],100
same,Corn plant response rating,[7]; [20],60
same,Corn plant response rating,[7]; [21],80
same,Corn plant response rating,[7]; [22],30
same,"Plant response rating, Corn",[7]; [23],90
same,Sunflower plant response rating,[8]; 62 g ai/ha,15
same,"Plant response rating (0 to 100), Sunflower","[8]; Preemergence, 250 g ai/ha",95
same,Sunflower plant response rating,[8]; 125 g ai/ha,70
same,"Foxtail, Giant plant response rating",[9]; [17],60
same,"Foxtail, Giant plant response rating",[9]; [18],90
same,"Plant response rating (0 to 100), Foxtail, Giant","[9]; Postemergence, 31 g ai/ha",0
same,"Plant response rating, Foxtail, Giant","[9]; Postemergence, 62 g ai/ha",40
same,"Plant response rating, Foxtail, Giant","[9]; Postemergence, 125 g ai/ha",50
same,"Plant response rating, Foxtail, Giant","[9]; Postemergence, 250 g ai/ha",55
same,"Plant response rating (0 to 100), Foxtail, Giant","[9]; Preemergence, 250 g ai/ha",100
same,"Foxtail, Giant plant response rating",[9]; [19],98
same,"Plant response rating (0 to 100), Velvetleaf",[10]; 31 g ai/ha,10
same,"Plant response rating (0 to 100), Velvetleaf",[10]; 62 g ai/ha,10
same,"Plant response rating, Velvetleaf",[10]; 125 g ai/ha,60
same,"Plant response rating, Velvetleaf",[10]; 250 g ai/ha,65
same,Nightshade plant response rating,[11]; [17],85
same,Nightshade plant response rating,[11]; [18],98
same,"Plant response rating (0 to 100), Nightshade","[11]; Preemergence, 250 g ai/ha",100
same,Nightshade plant response rating,[11]; [19],98
same,Johnsongrass plant response rating,[12]; 62 g ai/ha,98
same,"Plant response rating (0 to 100), Johnsongrass","[12]; Postemergence, 31 g ai/ha",0
same,"Plant response rating, Johnsongrass","[12]; Postemergence, 62 g ai/ha",0
same,"Plant response rating, Johnsongrass","[12]; Postemergence, 125 g ai/ha",20
same,"Plant response rating, Johnsongrass","[12]; Postemergence, 250 g ai/ha",20
same,"Plant response rating (0 to 100), Johnsongrass","[12]; Preemergence, 250 g ai/ha",100
same,Johnsongrass plant response rating,[12]; 125 g ai/ha,100
same,Wheat plant response rating,[13]; [20],60
same,Wheat plant response rating,[13]; [21],70
same,Wheat plant response rating,[13]; [22],60
same,"Plant response rating, Wheat",[13]; [23],100
same,"Crabgrass, Large plant response rating",[14]; [17],45
same,"Crabgrass, Large plant response rating",[14]; [18],98
same,"Plant response rating (0 to 100), Crabgrass, Large","[14]; Postemergence, 31 g ai/ha",0
same,"Plant response rating, Crabgrass, Large","[14]; Postemergence, 62 g ai/ha",0
same,"Plant response rating, Crabgrass, Large","[14]; Postemergence, 125 g ai/ha",50
same,"Plant response rating, Crabgrass, Large","[14]; Postemergence, 250 g ai/ha",70
same,"Plant response rating (0 to 100), Crabgrass, Large","[14]; Preemergence, 250 g ai/ha",100
same,"Crabgrass, Large plant response rating",[14]; [19],100
same,"Ryegrass, Italian plant response rating",[15]; [17],60
same,"Ryegrass, Italian plant response rating",[15]; [18],100
same,"Plant response rating (0 to 100), Ryegrass, Italian","[15]; Postemergence, 31 g ai/ha",0
same,"Plant response rating (0 to 100), Ryegrass, Italian","[15]; Postemergence, 62 g ai/ha",0
same,"Plant response rating, Ryegrass, Italian","[15]; Postemergence, 125 g ai/ha",0
same,"Plant response rating, Ryegrass, Italian","[15]; Postemergence, 250 g ai/ha",40
same,"Plant response rating (0 to 100), Ryegrass, Italian","[15]; Preemergence, 250 g ai/ha",100
same,"Ryegrass, Italian plant response rating",[15]; [19],100
same,Surinam Grass plant response rating,[16]; 62 g ai/ha,100
same,"Plant response rating (0 to 100), Surinam Grass","[16]; Postemergence, 31 g ai/ha",0
same,"Plant response rating (0 to 100), Surinam Grass","[16]; Postemergence, 62 g ai/ha",0
same,"Plant response rating, Surinam Grass","[16]; Postemergence, 125 g ai/ha",50
same,"Plant response rating, Surinam Grass","[16]; Postemergence, 250 g ai/ha",55
same,"Plant response rating (0 to 100), Surinam Grass","[16]; Preemergence, 250 g ai/ha",100
same,Surinam Grass plant response rating,[16]; 125 g ai/ha,100
